Data from PubChem BioAssay (NCI).
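48-hour exposure; five concentrations; linearly interpolated endpoints. GI50: concentration for 50% inhibition of growth. TGI denotes the concentration required for complete inhibition of growth.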

Assays:
Experiment in all cases: NCI tumour cell line growth inhibition, 48 h
786-0 renal = test system: 786-0 renal
NCI-H460 lung = test system: NCI-H460 lung
HCT-15 colon = test system: HCT-15 colon
HCT-116 colon = test system: HCT-116 colon
SK-MEL-28 melanoma = test system: SK-MEL-28 melanoma
KM12 colon = test system: KM12 colon
CCRF-CEM leukemia = test system: CCRF-CEM leukemia
LOX IMVI melanoma = test system: LOX IMVI melanoma
UACC-62 melanoma = test system: UACC-62 melanoma
SK-MEL-2 melanoma = test system: SK-MEL-2 melanoma

| Structure (SMILES) | TGI (786-0 renal) [µM] | TGI (NCI-H460 lung) [µM] | TGI (HCT-15 colon) [µM] | TGI (HCT-116 colon) [µM] | TGI (SK-MEL-28 melanoma) [µM] | TGI (KM12 colon) [µM] | TGI (CCRF-CEM leukemia) [µM] | TGI (LOX IMVI melanoma) [µM] | TGI (UACC-62 melanoma) [µM] | TGI (SK-MEL-2 melanoma) [µM] | GI50 (SK-MEL-2 melanoma) [µM] | GI50 (NCI-H460 lung) [µM] | GI50 (HCT-15 colon) [µM] | GI50 (HCT-116 colon) [µM] | GI50 (UACC-62 melanoma) [µM] | GI50 (SK-MEL-28 melanoma) [µM] | GI50 (KM12 colon) [µM] | GI50 (CCRF-CEM leukemia) [µM] | GI50 (LOX IMVI melanoma) [µM] |
| --- | --- | --- | --- | --- | --- | --- | --- | --- | --- | --- | --- | --- | --- | --- | --- | --- | --- | --- | --- |
| O=C(C=P(c1ccccc1)(c1ccccc1)c1ccccc1)c1cccc(-c2cccc([N+](=O)[O-])c2)c1 | > 100 | > 100 | 21.1 | > 100 | 10.9 | > 100 | 7.63 | 9.63 |  |  |  |  |  |  |  |  |  |  |  |
| Cc1nc2c(n1C)C(=O)c1nc(CBr)[nH]c(=O)c1C2=O |  | > 100 | > 100 | > 100 | > 100 |  | > 100 | > 100 | > 100 |  |  |  |  |  |  |  |  |  |  |
| Nc1ccc(-c2cssc2=S)cc1 | > 100 | > 100 | > 100 | > 100 | > 100 | > 100 |  | > 100 | 94.9 | 77 |  |  |  |  |  |  |  |  |  |
| COc1ccc2c(c1)CCN=C2Cc1cc(OC)c(OC)cc1CCCl |  | > 100 |  | > 100 | > 100 | > 100 | > 100 | > 100 | > 100 | > 100 |  |  |  |  |  |  |  |  |  |
| N#Cc1c(NC(=S)Nc2ccc(Cl)cc2)sc2c1CCCC2 |  |  | > 100 | > 100 | > 100 | > 100 |  | > 100 | > 100 | > 100 |  |  |  |  |  |  |  |  |  |
| OC1(c2ccc(Cl)cc2)c2c(ccc3c2OCO3)C2=NCCN21 (centres undefined) | > 100 | > 100 | > 100 | > 100 | 34.6 | 43.9 | > 100 | > 100 | 37 | 43.4 |  |  |  |  |  |  |  |  |  |
| COc1ccc(C2CC(c3cccc(Nc4ccncc4)c3)=NN2c2ccc(Cl)cc2)cc1 (centres undefined) |  | 3.37 | 3.58 | 3.36 | 3.2 | 3.37 | 7.74 | 3.03 | 3.22 | 4.28 | 2.07 | 1.81 | 1.88 | 1.65 | 1.73 | 1.73 | 1.72 | 2.5 | 1.66 |
| CC(=O)Oc1c(C)c2c(O)c3c1C1=C(OCOC1=C(C)C3=O)/C(C)=C\C(C)(O)C(O)C(C)C(O)C1C(=O)OC(C(C)C1O)C(C)(O)/C=C/C=C(C)C(=O)N2 (centres undefined) | > 100 | > 100 | > 100 | > 100 | > 100 | > 100 | 61.4 | > 100 | > 100 | > 100 |  |  |  |  |  |  |  |  |  |
| O=C(N/N=C(/COc1ccc(Cl)cc1)N=Cc1cccnc1)c1ccncc1 | > 100 | > 100 | > 100 | > 100 | > 100 | > 100 | > 100 | > 100 | > 100 | > 100 |  |  |  |  |  |  |  |  |  |
| COCO[C@@H]1C[C@H]2C(=O)N(COC)c3ccccc3C(=O)N2C1 | > 100 |  | > 100 | > 100 | > 100 | > 100 | > 100 | > 100 | > 100 | > 100 |  |  |  |  |  |  |  |  |  |
| CC(=O)c1c(SCCN2CCCC2)n(-c2ccccc2)c(=S)n(-c2ccccc2)c1=O | 3.12 | > 46.6 | 27.5 | 18.6 | 14.2 | > 55.7 | 4.01 | 9.04 | 20 | 50.8 |  |  |  |  |  |  |  |  |  |
| CS(=O)(=O)OC1CN2CCC1CC2 (centres undefined) | > 100 | > 100 | > 100 | > 100 | > 100 | > 100 | > 100 | > 100 | > 100 | > 100 |  |  |  |  |  |  |  |  |  |
| C/C(=C\c1ccccc1)C(=O)NCc1ccc(C(=O)NCCC(C)C)cc1 | > 100 | > 100 | > 100 | > 100 | > 100 | > 100 | > 100 | > 100 | > 100 | > 100 |  |  |  |  |  |  |  |  |  |
| CCN(CC)CCCC(C)Nc1ccnc2cc3ccccc3cc12 (centres undefined) | > 100 | 24.4 | 14.4 | > 100 |  | 33.8 | > 100 | > 100 | 49.1 | 52.4 |  |  |  |  |  |  |  |  |  |
| Cc1cc2c(cc1Cl)SC(c1ccccc1)C(=O)NS2(=O)=O (centres undefined) | > 100 | 86.1 | 64 | 45.6 | > 100 | > 100 | > 100 | > 100 |  | 32.9 |  |  |  |  |  |  |  |  |  |
| COC(=O)c1cc2c3c(cc(N(C)C)c2[nH]1)N(C(=O)c1cc2cc(OC)c(OC)c(OC)c2[nH]1)CC3CCl (centres undefined) | 0.00487 | 0.323 | 19.2 | < 0.0025 | 0.0143 | 0.0118 | 0.0538 |  | 0.0565 | 0.0659 |  |  |  |  |  |  |  |  |  |
| CSc1nc(NC2OCC(OC(C)=O)C(OC(C)=O)C2OC(C)=O)c(N=C(C)C(C)=O)c(=O)[nH]1 (centres undefined) |  | > 100 | > 100 | > 100 | > 100 | > 100 | > 100 | > 100 |  | > 100 |  |  |  |  |  |  |  |  |  |
| C#CCn1ncc2c(SC)ncnc21 | > 100 | > 100 | > 100 | > 100 | > 100 | > 100 | > 100 | > 100 | > 100 | > 100 |  |  |  |  |  |  |  |  |  |
| Cc1cccc2cc3c(ccc4ccccc43)c[n+]12 | > 100 | 93.7 | > 100 | > 100 | 34.3 | 32 | > 100 | > 100 | 63.1 | 48.3 |  |  |  |  |  |  |  |  |  |
| CCOC(=O)C[C@@H]1C2(C=C[C@@]13CO3)OCC(C)(C)CO2 |  | > 100 | > 100 | > 100 | > 100 |  | > 100 | > 100 | > 100 | > 100 |  |  |  |  |  |  |  |  |  |
